Entries after “also recorded” stand apart in the source; their conditions may differ.
How the values were obtained:
[1] = molecular target: Panx1 hemichannels (Homo sapiens, UniProt Q96RD7); conditions: cited from earlier work
[2] = system: Primary peritoneal macrophages; assay: LPS-induced HMGB1 secretion in primary peritoneal macrophages (Western blotting); format: cell-based, murine; conditions: crude LPS, 16 h, extracellular HMGB1
Experimental: FIG. 2A-2C. […] AU, arbitrary units. *, P<0.05 versus “+LPS alone.”
Primary murine macrophages and human monocytes were employed to investigate the mechanisms underlying the regulation of HMGB1 secretion by various inflammatory stimuli. Primary peritoneal macrophages were isolated from Balb/C mice (male, 7-8 weeks, 20-25 grams) at 2-3 days after intraperitoneal injection of 2 ml thioglycollate broth (4%, Difco, Detroit, Mich.) as previously described (23,78). Human peripheral blood mononuclear cells (HuPBMCs) were isolated from human blood purchased from the New York (Long Island) Blood Bank (Melville, N.Y.) by density gradient centrifugation through Ficoll (Ficoll-Paque PLUS, Pharmacia, Piscataway, N.J.) as previously described (23,78,79). At 80-90% confluence, macrophage/monocyte cultures will be stimulated with divergent stimuli: ultrapure and crude LPS, CIRP 14, SAA (PeproTech, Cat. No. 300-13) at different concentrations and for various time periods (0, 6, 12, and 18 h). The expression levels of Cx43 or Panx1 hemichannel proteins in macrophage/monocyte cultures are determined by Western blotting or immunocytochemistry techniques as previously described (21,23,80).

[3] = system: Primary peritoneal macrophages; assay: LPS-induced NO production in primary peritoneal macrophages (Griess reaction); format: cell-based, murine; conditions: crude LPS, 16 h
[4] = system: macrophage hemichannel activities; assay: Lucifer Yellow uptake in LPS-stimulated macrophages; format: cell-based
[5] = system: PKR; assay: LPS-induced PKR expression and phosphorylation (Western blotting); format: cell-based, murine; conditions: crude LPS, 16 h, primary macrophages
[6] = system: Primary peritoneal macrophages; conditions: reference 49; cited from earlier work
[7] = molecular target: Cx43 gap junctions (Homo sapiens, UniProt P17302); conditions: cited from earlier work
Sequence of Cx43 gap junctions (P17302 whole entry): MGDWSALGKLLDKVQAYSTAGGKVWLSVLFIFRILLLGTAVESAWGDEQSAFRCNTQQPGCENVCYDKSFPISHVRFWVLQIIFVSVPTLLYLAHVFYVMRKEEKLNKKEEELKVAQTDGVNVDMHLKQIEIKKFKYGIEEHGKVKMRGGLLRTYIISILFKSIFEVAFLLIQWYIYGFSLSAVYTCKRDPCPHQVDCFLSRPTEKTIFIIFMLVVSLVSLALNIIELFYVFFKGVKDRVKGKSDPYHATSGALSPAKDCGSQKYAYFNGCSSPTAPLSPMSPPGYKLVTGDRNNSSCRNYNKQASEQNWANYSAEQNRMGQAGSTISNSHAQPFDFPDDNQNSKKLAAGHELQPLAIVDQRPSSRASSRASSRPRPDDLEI

[8] = molecular target: Panx1 hemichannel (Homo sapiens, UniProt Q96RD7); conditions: cited from earlier work
Sequence of Panx1 hemichannel (Q96RD7 whole entry): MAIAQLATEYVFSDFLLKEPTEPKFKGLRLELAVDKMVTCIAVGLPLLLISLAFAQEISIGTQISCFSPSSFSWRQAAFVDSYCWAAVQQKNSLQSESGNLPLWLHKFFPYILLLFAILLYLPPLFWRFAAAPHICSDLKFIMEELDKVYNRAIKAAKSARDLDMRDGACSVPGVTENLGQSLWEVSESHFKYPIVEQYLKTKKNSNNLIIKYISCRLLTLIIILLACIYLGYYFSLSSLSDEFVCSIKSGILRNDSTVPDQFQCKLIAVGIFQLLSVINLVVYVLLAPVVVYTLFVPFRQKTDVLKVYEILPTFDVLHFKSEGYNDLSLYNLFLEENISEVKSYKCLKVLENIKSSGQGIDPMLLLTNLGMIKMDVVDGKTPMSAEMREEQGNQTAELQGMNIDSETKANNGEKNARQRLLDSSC

[9] = in vivo; cited from earlier work
[10] = molecular target: Cx43 hemichannel (Homo sapiens, UniProt P17302); conditions: ATP release or dye uptake; cited from earlier work
Sequence of Cx43 hemichannel (P17302 whole entry): as the sequence (P17302 whole entry) above

[11] = system: connexin 43-gated hemichannel activities; assay: Lucifer Yellow dye uptake in LPS-stimulated RAW 264.7 cells; format: cell-based; conditions: LPS 16 h, LY 1 mg/ml 15 min
Experimental: FIG. 8. […] The Lucifer Yellow dye uptake was used to measure the connexin 43-gated hemichannel activities. […] Subsequently, cell cultures were incubated with Lucifer Yellow (LY, 1 mg/ml) for 15 min, and fixed with 2% paraformaldehyde following three extensive washes with 1× PBS. The number of cells with diffused fluorescent signals was counted under a fluorescence microscope. The cells containing punctuate fluorescent signals were excluded, as the punctuate signals likely resulted from phagocytosis (rather than passive diffusion through Cx43 hemichannels) of the LY dye.
The Lucifer Yellow dye uptake was used to measure the connexin 43-gated hemichannel activities. […] Subsequently, cell cultures were incubated with Lucifer Yellow (LY, 1 mg/ml) for 15 min, and fixed with 2% paraformaldehyde following three extensive washes with 1×PBS. The number of cells with diffused fluorescent signals was counted under a fluorescence microscope. The cells containing punctuate fluorescent signals were excluded, as the punctuate signals likely resulted from phagocytosis (rather than passive diffusion through Cx43 hemichannels) of the LY dye. […] Animal survival was assessed for up to two weeks, and the Kaplan-Meier method was used to compare the differences in mortality rates between groups. […]

[12] = system: C57BL/6 mice; assay: Hepatic ischemia/reperfusion injury, serum ALT and AST; format: in vivo; conditions: 10.0 mg/kg BW via internal jugular vein at beginning of reperfusion; 24 h
Experimental: FIG. 10. Intravenous administration of Cx43 peptide antagonist conferred protection against hepatic ischemia/reperfusion (I/R) injury. Male C57BL/6 mice (20-25 g) were subjected to hepatic ischemia/reperfusion by temporally clamping the hepatic artery and portal vein for 60 minutes, which typically produced ischemia in 70% of the liver. At the beginning of the reperfusion, 0.2 ml saline, P5 (ENVCYD; 10.0 mg/kg BW) or P5A (ENVSYD (SEQ ID NO:14); 10.0 mg/kg BW) was injected via the internal jugular vein. At 24 h after the onset of ischemia, animals were euthanized to harvest blood to measure serum levels of hepatic injury markers such as alanine aminotransferase (ALT) and aspartate aminotransferase (AST) using commercial kits.
Intravenous administration of Cx43 peptide antagonist conferred protection against hepatic ischemia/reperfusion (I/R) injury. Male C57BL/6 mice (20-25 g) were subjected to hepatic ischemia/reperfusion by temporally clamping the hepatic artery and portal vein for 60 minutes, which typically produced ischemia in 70% of the liver. At the beginning of the reperfusion, 0.2 ml saline, P5 (ENVCYD, 10.0 mg/kg BW) or P5A (ENVSYD (SEQ ID NO:14), 10.0 mg/kg) was injected via the internal jugular vein. […]

Sequence of Panx1 hemichannels (Q96RD7 whole entry): as the sequence (Q96RD7 whole entry) above

## 10Panx: Panx1-specific mimetic inhibitory peptide, residues 74 to 83 of SEQ ID NO:16 (WRQAAFVDSY; HOMO SAPIENS)
[1]
  P2X7R-induced Panx1 hemichannel activation: selectively attenuate

## CC1(C)[C@@H](OC(=O)CCC(=O)O)CC[C@]2(C)[C@H]3C(=O)C=C4[C@@H]5C[C@@](C)(C(=O)O)CC[C@]5(C)CC[C@@]4(C)[C@]3(C)CC[C@@H]12 [CBX, carbenoxolone]
[2]
  LPS-induced HMGB1 secretion: effectively suppressed; also recorded: dose-dependently abrogated; also recorded: remarkably inhibited
[3]
  LPS (endotoxin)-induced NO production: effectively suppressed; also recorded: remarkably inhibited
[4]; prolonged LPS stimulation, quiescent approximately 2%, LPS alone ~16%
  number of LY-positive cells: 6-8%
[5]
  LPS-induced elevation of PKR expression and phosphorylation: dose-dependently abrogated; also recorded: significantly attenuated
[6]
  concentrations of CBX used to abrogate LPS-induced HMGB1 secretion in macrophages: 5 to 10 µM
[7]
  EC50: 50 to 100 µM
[1]
  EC50: 1 to 4 µM
[8]; CBX 10 μM, hypoxia, sheer stress, low oxygen tension
  Panx1 hemichannel-mediated ATP release: effectively inhibited
[8]; CBX >100 μM
  ATP release from apoptotic cells: uniformly attenuated

## CC1(C)[C@@H](O[C@H]2O[C@H](C(=O)O)[C@@H](O)[C@H](O)[C@H]2O[C@@H]2O[C@H](C(=O)O)[C@@H](O)[C@H](O)[C@H]2O)CC[C@]2(C)[C@H]3C(=O)C=C4[C@@H]5C[C@@](C)(C(=O)O)CC[C@]5(C)CC[C@@]4(C)[C@]3(C)CC[C@@H]12 [GZA, glycyrrhizic acid]
[9]
  benefit in animal models of hepatitis, hepatic ischemia/reperfusion, toxin-induced liver injury, endotoxemia, colitis: proven beneficial

## Nc1ncnc2c1ncn2[C@@H](C=O)O[C@@H](C=O)COP(=O)(O)OP(=O)(O)OP(=O)(O)O [oATP]
[2]
  LPS-induced HMGB1 secretion: similarly inhibited
[4]; data not shown
  LPS-induced LY-uptake: similarly inhibited
[5]
  LPS-induced elevation of PKR expression and phosphorylation: significantly attenuated

## CCCN(CCC)S(=O)(=O)c1ccc(C(=O)O)cc1 [probenecid]
[1]
  specificity for Panx1 (over Cx43): more specific inhibitor

## Gap19: mimetic peptide KQIEIKKFK (SEQ ID NO:19), intracellular loop of Cx43 (HOMO SAPIENS)
[7]
  Cx43 gap junction communication: without affecting
[1]
  Panx1 channel activity: without affecting
[10]
  Cx43 hemichannel activities: specifically inhibits

## P5: peptide ENVCYD (SEQ ID NO:1), Cx43 peptide antagonist from extracellular loop 1 (listed as Homo Sapiens)
[11]
  bacterial endotoxin-induced Lucifer Yellow dye uptake: significantly inhibited
[12]
  protection against hepatic I/R injury (serum ALT, AST): significant protection
